# Reference: patent publication US20060147511A1, “Liposomal glucocorticoids” (priority 2002, published 2006)
# Legend:
# [1] = system: Antigen-induced arthritis; assay: Antigen-induced arthritis in rats, determination of joint swelling; type: in vivo; conditions: 0.375 mg per kg body weight
# Protocol: (§1) Antigen-induced arthritis was provoked in test animals (rats) according to Buchner (“Behandlung der antigeninduzierten Arthritis der Ratte mit Anti-Makrophagenprinzipien und monoklonalen Anti-CD4 Antikörpern”, Ph.D. thesis 1996, Friedrich-Alexander University Erlangen-Nuremberg, Germany, p. 129).
# (§2) Arthritis was provoked on day 0 according to Buchner by intra-articular injection of the antigen into the synovial gap in the right knee. The arthritic animals were treated intravenously with liposomal dexamethasone phosphate (formulation A, 3.75 mg/kg) 6, 24 and 48 hours after induction of arthritis. Free dexamethasone phosphate (formulation K, likewise 3.75 mg/kg) and physiological salt solution (saline) were used as controls. The effect of sample administration was established using the following parameters: • determination of joint swelling (cf., FIG. 1)
# Arthritis was provoked in rats in analogy to Example 3, and the rats were treated with the following formulations containing only one tenth of the dexamethasone phosphate dose specified in Example 3:
# In analogy to Example 3, antigen-induced arthritis was provoked in the test animals. Arthritis was provoked on day 0 by intra-articular injection of the antigen into the synovial gap in the right knee. […]
# [2] = system: Antigen-induced arthritis; assay: Antigen-induced arthritis in rats, histological examination of joint inflammation and joint cartilage destruction; type: in vivo; conditions: for Degree of cartilage destruction / Degree of joint inflammation: 3.75 mg/kg intravenously 6, 24 and 48 hours after induction, scale 0: no changes, 6: massive changes compared to healthy knee
# Protocol: as §1, §2
# histological examination of inflammation parameters and of joint cartilage destruction parameters (cf. FIG. 2 and Table 2)
# Degree of joint cartilage destruction and joint inflammation of arthritic animals after treatment
# 0: no changes compared to healthy knee
# In analogy to Example 3, antigen-induced arthritis was provoked in the test animals. Arthritis was provoked on day 0 by intra-articular injection of the antigen into the synovial gap in the right knee. The arthritic animals were treated intravenously with liposomal dexamethasone phosphate (formulation B, C, 3.75 mg/kg each time, according to Table 4) 6, 24 and 48 hours after induction of arthritis. Free dexamethasone phosphate (formulation K, likewise 3.75 mg/kg) and physiological salt solution (saline) were used as controls. The effect of sample administration was established using the following parameters: • determination of joint swelling (cf., FIG. 5)
# histological examination of inflammation parameters and of joint cartilage destruction parameters (cf., FIG. 2 and Table 5)
smiles,measurement,setting,value
"C[C@@H]1C[C@H]2[C@@H]3CCC4=CC(=O)C=C[C@]4(C)[C@@]3(F)[C@@H](O)C[C@]2(C)[C@@]1(O)C(=O)COP(=O)(O)O [Formulation K, dexamethasone phosphate]",Suppression of antigen-induced arthritis,[1],developed all symptoms of the animal model after short amelioration
same,"Histological sections of arthritic knee joints (FIG. 2), finding","[2]; Hematoxylin/eosin staining, magnified 92fold",massive inflammation and destruction of cartilage and bone
same,Degree of cartilage destruction,"[2]; Table 2, rats",2.75
same,Degree of joint inflammation,"[2]; Table 2, rats",3.5
same,Degree of cartilage destruction,"[2]; Table 5, rats",2.75
same,Degree of joint inflammation,"[2]; Table 5, rats",3.5
same,Joint cartilage destruction and inflammatory reactions after treatment (in words),"[2]; rats, 3.75 mg/kg intravenously",considerably less effective
